The target of one series is T1, rat NaP2b (SLC34A2) (Rattus norvegicus, UniProt Q9JJ09).
T1 construct: host or cells: HEK293
T1 sequence (Q9JJ09 1-695): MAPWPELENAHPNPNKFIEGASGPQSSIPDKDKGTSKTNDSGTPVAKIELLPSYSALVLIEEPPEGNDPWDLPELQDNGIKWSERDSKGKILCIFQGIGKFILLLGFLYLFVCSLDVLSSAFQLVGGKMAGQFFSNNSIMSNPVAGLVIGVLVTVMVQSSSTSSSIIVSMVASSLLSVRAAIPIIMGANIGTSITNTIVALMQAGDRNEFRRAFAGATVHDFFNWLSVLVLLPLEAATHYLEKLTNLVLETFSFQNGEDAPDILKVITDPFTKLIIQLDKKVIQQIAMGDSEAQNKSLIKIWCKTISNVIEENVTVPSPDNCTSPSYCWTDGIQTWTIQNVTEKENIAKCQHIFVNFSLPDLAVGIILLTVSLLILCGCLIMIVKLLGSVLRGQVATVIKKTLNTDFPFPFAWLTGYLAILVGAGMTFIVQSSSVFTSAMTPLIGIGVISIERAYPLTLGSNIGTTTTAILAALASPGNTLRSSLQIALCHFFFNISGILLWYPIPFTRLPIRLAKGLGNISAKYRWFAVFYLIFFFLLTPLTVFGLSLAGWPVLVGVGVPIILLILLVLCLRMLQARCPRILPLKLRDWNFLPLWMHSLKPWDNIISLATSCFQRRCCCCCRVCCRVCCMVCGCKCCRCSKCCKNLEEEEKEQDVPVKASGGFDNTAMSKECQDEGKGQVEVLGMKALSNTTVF
Nature of the series: Inhibition of NaP2b-mediated Pi (33P) uptake in transfected HEK293 cells, rat NaP2b. It counts as cell-based. The following applies: 33P Pi uptake, 0.1 mM phosphate, value given as pIC50 range. The method in brief:
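HEK293 cells were transiently transfected with NaP2b cDNA using Lipofectamine and grown near confluence. Compounds were tested at twelve concentrations from 0.1 nM to 30 uM in duplicate, and 33P-phosphate uptake was counted by scintillation after lysis. Results are expressed as pIC50.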

Series [1] in a line: Stability of compounds in simulated gastric fluid (SGF). In kind it is in vitro ADME. The following applies: simulated gastric fluid (3 mg/mL pepsin), incubation time 6 hr, relative to t=0. Summed up: (§1)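 Compounds at […] were incubated 3 or 6 hr in USP simulated gastric fluid with 3 mg/mL pepsin or simulated intestinal fluid with 3 mg/mL pancreatin. Remaining compound was quantified by HPLC-UV or HPLC-MS peak area % and reported as percent of the t=0 level in the same medium.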

Series [2] in a line: Stability of compounds in simulated intestinal fluid (SIF). It counts as in vitro ADME. To be noted: simulated intestinal fluid (3 mg/mL pancreatin), incubation time 6 hr, relative to t=0. Summed up:
as §1

Series [3] can be described thus: Determination of compound Cmax and AUC after oral gavage (plasma LC-MS/MS). It counts as in vivo, Sprague-Dawley rats. To be noted: Sprague-Dawley, rat, plasma, po, Structure (I) examples. The method in brief:
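Sprague-Dawley rats dosed by oral gavage at nominal 2.5 or 10 mg/kg; blood drawn at 0.5, 1, 2 and 4 h into K2EDTA. Plasma protein-precipitated with acetonitrile plus internal standard and analysed by LC-MS/MS against a plasma standard curve to derive Cmax and AUC.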

A short description of series [4]: Fecal recovery of orally administered compounds. In kind it is in vivo, Sprague-Dawley rats. The following applies: Structure (I) examples, Table 16; rat, oral gavage, feces collected until 48 hr after dosing.
Excerpt: The animals were kept in metabolic cages and feces were collected from the time of dosing until 48 hr after dosing. Upon collection, feces were dried by lyophilization and ground to a visually homogenous powder. Duplicate samples of ground feces from each individual animal were weighed out and extracted using organic solvent. […] Extraction conditions were not optimized for individual compounds, and thus may represent a minimal level of recovery.
(§2) The animals were kept in metabolic cages and feces were collected from the time of dosing until 48 hr after dosing. Upon collection, feces was dried by lyophilization and ground to a visually homogenous powder. Duplicate samples of ground feces from each individual animal were weighed out and extracted using organic solvent. […] Extraction conditions were not optimized for individual compounds, and thus may represent a minimal level of recovery.
as §2
The animals were kept in metabolic cages and feces were collected from the time of dosing until 48 hr after dosing. Upon collection, feces was dried by lyophilization and ground to a visually homogenous powder. Duplicate samples of ground feces from each individual animal were weighed out and extracted using organic solvent.

For the next series, the target named is T2, human NaP2b (SLC34A2) (Homo sapiens, UniProt O95436).
T2 construct: host or cells: HEK293
T2 sequence (O95436 1-690): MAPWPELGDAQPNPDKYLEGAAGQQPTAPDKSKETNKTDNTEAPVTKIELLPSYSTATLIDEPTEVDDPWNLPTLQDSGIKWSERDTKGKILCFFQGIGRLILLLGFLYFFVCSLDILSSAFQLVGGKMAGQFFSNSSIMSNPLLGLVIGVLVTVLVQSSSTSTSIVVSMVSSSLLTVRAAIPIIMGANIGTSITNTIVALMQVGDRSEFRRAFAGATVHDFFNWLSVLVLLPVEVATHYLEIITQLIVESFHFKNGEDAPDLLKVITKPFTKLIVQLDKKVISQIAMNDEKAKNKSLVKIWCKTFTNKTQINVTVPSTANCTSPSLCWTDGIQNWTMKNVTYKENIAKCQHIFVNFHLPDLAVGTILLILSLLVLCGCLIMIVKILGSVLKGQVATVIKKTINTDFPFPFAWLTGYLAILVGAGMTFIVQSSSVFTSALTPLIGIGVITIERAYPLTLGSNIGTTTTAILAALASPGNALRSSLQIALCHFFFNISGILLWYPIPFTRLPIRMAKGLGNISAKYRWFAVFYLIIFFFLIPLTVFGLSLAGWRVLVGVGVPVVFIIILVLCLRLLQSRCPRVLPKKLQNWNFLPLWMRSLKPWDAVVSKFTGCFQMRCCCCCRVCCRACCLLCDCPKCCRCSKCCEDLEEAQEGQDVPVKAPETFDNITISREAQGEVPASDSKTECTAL
As to the kind of experiment: Inhibition of NaP2b-mediated Pi (33P) uptake in transfected HEK293 cells, human NaP2b. In kind it is cell-based. To be noted: read-out: pIC50 range for human NaP2b (converted). Summed up: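 HEK293 cells transiently transfected with human NaP2b (Thr inserted after residue 37, N39D), endogenous PiT transport pharmacologically silenced. Sodium or choline buffer, pH 7.4, with 100 uM KH2PO4, 33P orthophosphate and compound (0.1 nM–30 uM, twelve concentrations, duplicate). 3-30 min at room temperature, scintillation counting, pIC50 derived.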

[5] abbreviates: Table 15, actual oral dose 3-15 mg/kg, plasma 0.5-4 h.
Setting [6] is: Table 15, actual oral dose 15-40 mg/kg, plasma 0.5-4 h.

A value given as a limit tells only on which side of the number the result lay.

For `O=C(O)CCOCCOCCOCCNC(=O)c1cccc(SCc2cccc(C(=O)Nc3ccc(Cl)cc3-c3cc(C(=O)NCc4cccc(C(F)(F)F)c4)ccn3)c2)c1` [Example 264, 1-(3-(3-(4-chloro-2-(4-(3-(trifluoromethyl)benzylcarbamoyl)pyridin-2-yl)phenylcarbamoyl)benzylthio)phenyl)-1-oxo-5,8,11-trioxa-2-azatetradecan-14-oic acid], the IC50 on rat NaP2b (SLC34A2) was 10 to 31.6 µM. In series [1], the “% remaining, SGF” value is reported as 40-60%. In series [2], the “% remaining, SIF” value is greater than 80%. In series [3] (setting [5]), this compound displayed an AUC of less than 10 ng·h/mL and a Cmax of less than 10 ng/mL. For the same compound, in series [4], the “% recovered in feces” value was less than 20%.
At rat NaP2b (SLC34A2), `CCN(CC)c1ccc(NC(=O)c2cccc(CCCOCCOCCOCCOCCNS(=O)(=O)c3ccc(CCC(=O)O)cc3)c2)c(-c2cc(C(=O)NCc3cccc(C(F)(F)F)c3)ccn2)c1` [Example 294, 3-(4-(N-(15-(3-(4-(diethylamino)-2-(4-(3-(trifluoromethyl)benzylcarbamoyl)pyridin-2-yl)phenylcarbamoyl)phenyl)-3,6,9,12-tetraoxapentadecyl)sulfamoyl)phenyl)propanoic acid] showed an IC50 of less than 1 µM. In addition, the IC50 at human NaP2b (SLC34A2) was less than 1 µM. In addition, in series [3] (setting [5]), the AUC was greater than 50 ng·h/mL and the Cmax is less than 10 ng/mL. The “% recovered in feces” value in series [4] is reported as greater than 80%.
As to `CCN(CC)c1ccc(NC(=O)c2cccc(CCCOCCOCCOCCOCCNC(=O)c3cccc(CCCOCCOCCOCCOCCOCCOCCOCCOCCOC)c3)c2)c(-c2cc(C(=O)NCc3cccc(C(F)(F)F)c3)ccn2)c1` [Example 271, 2-(2-(3-(1-(3-(2,5,8,11,14,17,20,23,26-nonaoxanonacosan-29-yl)phenyl)-1-oxo-5,8,11,14-tetraoxa-2-azaheptadecan-17-yl)benzamido)-5-(diethylamino)phenyl)-N-(3-(trifluoromethyl)benzyl)isonicotinamide], the IC50 against rat NaP2b (SLC34A2) is 1 to 7.94 µM. Further, the AUC in series [3] (setting [6]) was greater than 50 ng·h/mL. The compound further gave a Cmax in series [3] (Table 15, plasma 0.5-4 h) of less than 30 ng/mL. Besides, the “% recovered in feces” value in series [4] is recorded as 20-80%.
Consider `CCN(CC)c1ccc(NC(=O)c2cccc(CCCOCCOCCOCCOCCC(=O)N3CCN(C(=O)c4cccc(CCCOCCOCCOCCOCCOCCOCCOCCOCCOC)c4)CC3)c2)c(-c2cc(C(=O)NCc3cccc(C(F)(F)F)c3)ccn2)c1` [Example 262, 2-(2-(3-(16-(4-(3-(2,5,8,11,14,17,20,23,26-nonaoxanonacosan-29-yl)benzoyl)piperazin-1-yl)-16-oxo-4,7,10,13-tetraoxahexadecyl)benzamido)-5-(diethylamino)phenyl)-N-(3-(trifluoromethyl)benzyl)isonicotinamide], for which the IC50 at rat NaP2b (SLC34A2) and on human NaP2b (SLC34A2) was 1 to 7.94 µM each time. The AUC in series [3] (setting [6]) was less than 50 ng·h/mL. Also, the maximum concentration (Cmax) in series [3] (Table 15, plasma 0.5-4 h) was less than 10 ng/mL. Moreover, the “% recovered in feces” value in series [4] is listed as 20-80%.
At rat NaP2b (SLC34A2), `O=C(O)CCOCCOCCOCCNC(=O)Cc1cccc(SCc2cccc(C(=O)Nc3ccc(N4CCCCC4)cc3-c3cc(C(=O)NCc4cccc(C(F)(F)F)c4)ccn3)c2)c1` [Example 137] gave an IC50 of 1 to 7.94 µM. Besides, the “% remaining, SGF” value in series [1] was greater than 80%. In addition, in series [2], the “% remaining, SIF” value is recorded as greater than 80%. Further, in series [3] (setting [5]), the AUC is less than 10 ng·h/mL and the Cmax is less than 10 ng/mL. Also, in series [4], the “% recovered in feces” value was less than 20%.
Compound `CC(C)(SCc1cccc(C(=O)Nc2ccc(N3CCCCC3)cc2-c2cc(C(=O)NCc3cccc(C(F)(F)F)c3)ccn2)c1)C(=O)O` [Example 8.6] showed an IC50 against rat NaP2b (SLC34A2) of 1 to 7.94 µM. Also, the “% remaining, SGF” value in series [1] was greater than 80%. Besides, the “% remaining, SIF” value in series [2] is recorded as greater than 80%. In series [3] (setting [5]), the AUC is greater than 50 ng·h/mL and the Cmax is less than 50 ng/mL. Also, the “% recovered in feces” value in series [4] is listed as 20-80%.

The record behind these values is patent US20140023611A1 (priority 2010, published 2014).
